{"source": "patent EP1101496A1", "about": "“THERAPEUTIC AGENTS FOR ALLERGIC DISEASES” (FUJI YAKUHIN KOGYO KABUSHIKI KAISHA, priority 1998, dated 2000)", "key": {"[1]": {"system": "IgE-mediated auricle edema", "test": "Auricle edema in experimental atopic dermatitis model (anti-DNP IgE sensitization, DNFB elicitation)", "format": "in vivo, Balb/c mice", "settings": "for % Inhibition vLPR: 7 or 8 days post-elicitation; for % Inhibition vLPR / % Inhibition IPR / % Inhibition LPR: painted on auricles 60 µg/ear/dose in ethanol twice a day; for % Inhibition IPR: 1 hour post-elicitation, 1 hour pre-elicitation to 6 days post-elicitation; for % Inhibition LPR: 1 day post-elicitation", "experimental": "Intravenous injection of an anti-2,4-dinitrophenol (DNP) antibody (anti-DNP Ab, monoclonal IgE Ab; its antibody titer was 1 : 512 to 1 : 1024 by a rat heterologous passive cutaneous anaphylaxis reaction using a Wister rat) into a tail vein of female Balb/c mice (7-week old, body weight: 17 to 20 g, purchased from JAPAN SLC, Inc.) at a dose of […] per animal raised passive sensitization. Twenty four hours post-sensitization, 0.1% 2,4-dinitrofluorobenzene (DNFB; Nacalai Tesque, Inc.) in ethanol was painted onto both sides of a pair of mouse auricles at a dose of 10 µL per each side for elicitation.\nFresh unsensitized mice were painted with 0.1% DNFB in ethanol onto their ear in the same manner as aforementioned and served as a control group. Not only immediately prior to elicitation but also 1 hour, 5 hours, daily between Days 1 and 14, and on Day 16 post-elicitation, ear thickness was measured using a dial thickness gauge (Peacock Co.). Each degree of auricle edemas was calculated: Auricular Edema (µm)=(Ear Thickness Post-Elicitation, µm) - (Ear Thickness immediately prior to Elicitation, µm) [formula]\nBalb/c mice were passively sensitized with anti-DNP IgE Ab in the same manner as in Example 1. Twenty four hours later, 0.1% DNFB in ethanol was painted onto both sides of a pair of mouse auricles at a dose of 10 µL per each side for elicitation.\nImmediately prior to elicitation, 1 hour and on Day 1 post-elicitation, auricle thickness was measured in the same manner as in Example 1. Each therapeutic efficacy is recorded as a percent inhibition wherein the \"auricle edema (untreated group)\" is used as a control. Auricle Edema Inhibition (%) = [ 1 -(Auricle Edema (Treated Group))/(Auricle Edema (Untreated Group))] × 100 (%) [formula]\n(§1) Mice were sensitized with anti-DNP IgE Ab and then elicited by painting 0.1% DNFB in ethanol onto both sides of a pair of mouse auricles at a dose of 10 µL per each side 24 hours post-sensitization in the same manner as in Example 1. […] Immediately prior to elicitation, and on Day 7 post-elicitation, auricle thickness was similarly measured. Each therapeutic efficacy is recorded as a percent inhibition wherein the auricle edema in the untreated group is used as a control.\nas §1, with “(untreated group)” for “in the untreated group”\nMice were sensitized with anti-DNP IgE Ab and then elicited by painting 0.1% DNFB in ethanol onto both sides of a pair of mouse auricles at a dose of 10 µL per each side 24 hours post-sensitization in the same manner as in Example 1. […] Immediately prior to elicitation, at 1 and 4 hours and on Days 1, 3 and 7 post-elicitation, auricle thickness was similarly measured. From each auricle edema (µm) based on the auricle thickness immediately prior to elicitation, especially a prophylactically therapeutic efficacy of the test compound was evaluated.\nMice were sensitized with anti-DNP IgE Ab and then elicited by painting 0.1% DNFB in ethanol onto both sides of a pair of mouse auricles at a dose of 10 µL per each side 24 hours post-sensitization in the same manner as in Example 1. A solution of a test metalloproteinase inhibitor (Compound No. 8; 50 µg/ear/dose, twice a day) in ethanol was painted onto both sides of a pair of the mouse auricles 1 hour pre-elicitation, 0.25, 3, 4, 5 and 6 days post-elicitation (5 animals per group). Immediately prior to elicitation, at 0.5, 1 and 4 hours and on Days 1, 3 and 7 post-elicitation, auricle thickness was similarly measured. Each amount of auricle edemas was calculated (average± standard deviation). […]"}, "Allergic Peritonitis": {"system": "Allergic Peritonitis", "test": "Allergic peritonitis induced by ovalbumin", "format": "in vivo, male Balb/c mice", "settings": "for inhibition of infiltration of lymphocytes/macrophages into the peritoneal cavity: ovalbumin challenge", "experimental": "In the same manner as in Example 23, mice were actively sensitized with ovalbumin and Alum, and, on Day 14 after the initial sensitization, elicited with an inducing antigen solution. A test metalloproteinase inhibitor compound (Compound No. 20: 30 mg/kg) or a negative control solvent, physiological saline (10 mL/kg), was administered subcutaneously to each animal 6, 3 hours, and 5 minutes pre-induction, 3, and 6 hours post-induction. At 24 hours post-induction, a physiological saline (containing heparin) was injected intraperitoneally at 4 mL/mouse for peritoneal lavage. An aliquot of the retrieved washout medium was taken, and not only measured for a PEC density but also stained for PEC followed by fractional counting. Each effect of the compound on the total PEC number (PEC density× 4 mL), and eosinophils and lymphocytes/macrophages is shown in Table 15. Almost similarly to Examples 22 to 24, the total PEC number and the numbers of eosinophils and lymphocytes/macrophages in the peritoneal cavity are reduced.\nEach efficacy on intraperitoneal exudation of neutrophils was examined according to the methods as disclosed in Ouchi et al., \"Seibutsu Yakukagaku Jikken Koza, Ensho To Allergy (Inflammation and Allergy) I-3\", pp.139 to 151, Hirokawa Publishing Co., Japan and Spicer et al., The International Archives of Allergy and Applied Immunology, 81: 81 to 84, 1986.\nIn the same manner as in Example 23, male Balb/c mice were sensitized with ovalbumin and an aluminum hydroxide gel, and, on Day 14 after the initial sensitization, elicited with an antigen solution to raise allergic peritonitis. Each test metalloproteinase inhibitor (Compound No. 20 or 21: 30 mg/kg) or a negative control solvent, physiological saline (10 mL/kg), was administered subcutaneously to each animal 1 hour prior to induction, and 3 hours post-induction. At 6 hours post-induction, peritoneal lavage was done similarly to Example 22, measured for a PEC density, and counted for the total PEC number. In the same manner as in Example 22, PEC was stained, and subjected to fractional counting under a microscope with classification into neutrophils, eosinophils, lymphocytes/macrophages and basophils based on their form and stain nature. Each cell ratio was as follows: 2.3% (neutrophil), 1.1% (eosinophil), 95.4% (lymphocyte/macrophage), and 1.2% (basophil) for unsensitized/physiological saline-administered mice; and 5.7% (neutrophil), 11.9% (eosinophil), 81.3% (lymphocyte/macrophage), and 1.1% (basophil) for sensitized/physiological saline-administered mice. By a similar line of reasoning in Example 22, basophils were excluded from subjects to be examined. In the same manner as in Example 22, intraperitoneal exudation inhibition rates were calculated and expressed as the therapeutic efficacies."}, "[2]": {"settings": "30 mg/kg s.c. 6, 3 hours and 5 minutes pre-induction, 3 and 6 hours post-induction, 24 hours post-induction (Example 25)"}, "[3]": {"settings": "30 mg/kg s.c. 1 hour prior to and 3 hours post-induction, 6 hours post-induction (Example 26)"}}}
{"smiles": "CNC(=O)[C@H](Cc1ccc(NC(=N)N)cc1)NC(=O)[C@H](CC(C)C)C(CCCc1ccccc1)C(=O)NO", "note": "(single isomer, unassigned) [Compound No. 8, N-[4-(N-hydroxyamino)-2(R)-isobutyl-3(R or S)-(3-phenyltrimethylene)succinyl]-L-4'-guanidophenylalanine-N-methylamide 1 acetate]", "values": [{"measurement": "inhibitory efficacy on IgE-mediated auricle edema in IPR, LPR and vLPR (FIG. 6)", "setting": "[1]; 60 mg/kg s.c. only 24 and 2 hours prior to elicitation, compared with prednisolone 10 mg/kg i.p.", "result": "edema-inhibitory activity equivalent to that of prednisolone in IPR and slightly and markedly higher than that of prednisolone in LPR and vLPR"}, {"measurement": "inhibitory efficacy on IgE-mediated auricle edema in IPR, LPR and vLPR (FIG. 7)", "setting": "[1]; painted on auricles, 50 µg/ear/dose in ethanol, 1 hour pre-elicitation and 0.25, 3, 4, 5, 6 days post-elicitation", "result": "endowed with an inhibitory activity on edemas in any of IPR, LPR, and vLPR"}, {"measurement": "inhibition of infiltration of lymphocytes/macrophages into the peritoneal cavity", "setting": "Allergic Peritonitis; 30 mg/kg i.p. 5 minutes prior to and 3 and 6 hours post-induction (Example 23)", "result": 74.9, "unit": "%"}, {"measurement": "inhibition of infiltration of lymphocytes/macrophages into the peritoneal cavity", "setting": "Allergic Peritonitis; 30 mg/kg s.c. 6 hours and 5 minutes prior to induction, 24 hours after induction (Example 24)", "result": 91.2, "unit": "%"}]}
{"smiles": "CNC(=O)[C@H](Cc1ccc(NC(=N)N)cc1)NC(=O)[C@H](CC(C)C)C(CCCc1ccccc1)C(=O)NO.Cl", "note": "(single isomer, unassigned) [Compound No. 20, N-[4-(N-hydroxyamino)-2(R)-isobutyl-3(R or S)-(3-phenyltrimethylene)succinyl]-L-4'-guanidophenylalanine-N-methylamide 1 hydrochloride]", "values": [{"measurement": "% Inhibition vLPR", "setting": "[1]", "result": 31, "unit": "%"}, {"measurement": "% Inhibition IPR", "setting": "[1]", "result": 56, "unit": "%"}, {"measurement": "% Inhibition LPR", "setting": "[1]", "result": 58, "unit": "%"}, {"measurement": "Leukocyte exudate inhibition rate (%) (Macrophages)/(Lymphocytes)", "setting": "Allergic Peritonitis; [2]", "result": 55.1, "unit": "%"}, {"measurement": "Leukocyte exudate inhibition rate (%) Eosinophils", "setting": "Allergic Peritonitis; [2]", "result": 38.9, "unit": "%"}, {"measurement": "Leukocyte exudate inhibition rate (%) Total PEC Number", "setting": "Allergic Peritonitis; [2]", "result": 49.6, "unit": "%"}, {"measurement": "Leukocyte exudate inhibition rate (%) Eosinophils", "setting": "Allergic Peritonitis; [3]", "result": 38.4, "unit": "%"}, {"measurement": "Leukocyte exudate inhibition rate (%) Neutrophils", "setting": "Allergic Peritonitis; [3]", "result": 41.4, "unit": "%"}, {"measurement": "Leukocyte exudate inhibition rate (%) Total PEC Number", "setting": "Allergic Peritonitis; [3]", "result": 40.9, "unit": "%"}]}
{"smiles": "CNC(=O)[C@H](Cc1ccc(N=C(N)N)cc1)NC(=O)[C@@H](CC(=O)NO)CC(C)C.O=S(=O)(O)O", "note": "[Compound No. 21, N-[4-(N-hydroxyamino)-2(R)-isobutylsuccinyl]-L-4'-guanidophenylalanine-N-methylamide 1 sulfate]", "values": [{"measurement": "% Inhibition vLPR", "setting": "[1]", "result": 35, "unit": "%"}, {"measurement": "% Inhibition IPR", "setting": "[1]", "result": 31, "unit": "%"}, {"measurement": "% Inhibition LPR", "setting": "[1]", "result": 22, "unit": "%"}, {"measurement": "Leukocyte exudate inhibition rate (%) Neutrophils", "setting": "Allergic Peritonitis; [3]", "result": 27.1, "unit": "%"}, {"measurement": "Leukocyte exudate inhibition rate (%) Total PEC Number", "setting": "Allergic Peritonitis; [3]", "result": 38.6, "unit": "%"}]}
